Assay in all cases: NCI anticancer screen, dose series, 48 h
Test [1] deals with HS 578T breast.
The subject of test [2] is NCI-H226 lung.
Test [3] deals with NCI-H460 lung.
Test [4] has as its system SK-OV-3 ovarian.
The subject of test [5] is OVCAR-5 ovarian.
For test [6], the system named is RXF 393 renal.
Test [7] relates to CCRF-CEM leukemia.
The subject of test [8] is SK-MEL-28 melanoma.
In test [9] the test system is LOX IMVI melanoma.
The subject of test [10] is MCF7 breast.

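Cultured in 96-well plates, cells were exposed to test compound for 48 hours across five concentrations. TGI: total growth inhibition.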

As for `CC1=NN(c2nc(N)nc(/C(C#N)=C/c3cccn3-c3cc(Cl)cc(Cl)c3)n2)C(C)(C)C1`, the TGI in [1], in test [2], in [3], in test [4], in [5] and in test [6] was greater than 100 µM each time. The TGI in test [7], in test [8], in test [9] and in [10] was greater than 100 µM throughout.

`COc1ccc(C)cc1Nc1nnc(-c2ccccc2N)s1`: the TGI in test [1], in test [2], in [3], in test [4], in test [5] and in test [6] was greater than 100 µM each time. For the same compound, the TGI in test [7], in test [8], in test [9] and in test [10] was greater than 100 µM in each case.

Turning to `O=C(O)c1ccn(-c2cccc(-n3ccc(C(=O)O)n3)n2)n1`, the TGI in test [1], in test [2], in test [3], in [4], in test [5] and in test [6] was greater than 100 µM each time. For the same compound, the TGI in test [7], in [8], in [9] and in [10] was greater than 100 µM each time.

Turning to `CC1(C)CC(C)(C)C1=NNC(N)=O`, the TGI in [1], in [2], in test [3], in test [4], in test [5] and in test [6] was greater than 100 µM throughout. The TGI in test [7], in test [8], in test [9] and in test [10] was greater than 100 µM each time.

Consider `COc1cc(/C=C2\Sc3scc(-c4cccc([N+](=O)[O-])c4)[n+]3C2=O)cc(OC)c1OC`, for which the TGI amounted to 57.1 µM in [1]; 34.3 µM in test [2]; 24.2 µM in [3]; 59.9 µM in [4]; 55.6 µM in [5]; 26.9 µM in test [6]. Also, the TGI in [7] was 90.6 µM; in [8], 34.8 µM; in test [9], 24.1 µM; in test [10], 13.7 µM.

As to `N#Cc1ccccc1-c1nc2c3c(c(N)ccc3n1)C(=O)c1ccccc1-2`, the TGI in test [1], in test [2], in test [3], in test [4], in test [5] and in test [6] was greater than 100 µM in each case. Also, the TGI in test [7], in test [8], in test [9] and in test [10] was greater than 100 µM throughout.

On to `CC(=O)Nc1ccc(OC2=CCN(C)CC2)cc1`, for which the TGI in test [1], in [2], in [3], in test [4], in [5] and in test [6] was greater than 100 µM throughout. Further, the TGI in [7], in [8], in test [9] and in [10] was greater than 100 µM each time.

On to `COC(=O)c1c(O)ccc2c1c1c(n2Cc2cccc(C)c2)C(=O)c2ccccc2C1=O`, for which the TGI in test [1] is 34.9 µM; in test [2] it was 38.8 µM; in [3] it was 16.7 µM; in test [4], 23.8 µM; in test [5] it was 52.7 µM; in test [6], 26.1 µM. Besides, the TGI in test [7] is 22.5 µM; in [8], 29.1 µM; in test [9], 26.6 µM; in [10], 20.2 µM.

On to `CC1(C)C2C=CC1(C)C1(CC2)OCCO1` (stereo not given), for which the TGI in test [1], in [2], in test [3], in [4], in test [5] and in test [6] was greater than 100 µM throughout. Besides, the TGI in test [7], in test [8], in [9] and in test [10] was greater than 100 µM throughout.

For `CSC1=N/C(=C\c2ccco2)C(=O)N1CN1CCOCC1`, the TGI in test [1] is greater than 100 µM; in [2], greater than 100 µM; in [3] it was 27.7 µM; in test [4] it was greater than 100 µM; in test [5], greater than 100 µM; in test [6] it was 44.6 µM. Besides, the TGI in test [7] is greater than 90.3 µM; in [8], greater than 100 µM; in [9], greater than 100 µM; in test [10] it was greater than 100 µM.

Turning to `CC(=O)Oc1c2oc3ccc(Cl)cc3c(=O)c2c(O)c2ccsc12`, the TGI in [1], in test [2], in [3], in [4], in test [5] and in test [6] was greater than 100 µM in each case. The TGI in test [7], in test [8], in test [9] and in test [10] was greater than 100 µM each time.

For `Nc1ccccc1CC(O)C(=O)O` (stereo not given), the TGI in test [1], in test [2], in test [3], in test [4], in test [5] and in test [6] was greater than 100 µM in each case. Further, the TGI in test [7], in [8], in test [9] and in test [10] was greater than 100 µM in each case.

As to `O=c1oc2ccccc2cc1-c1cn2cc(Cl)ccc2n1`, the TGI in [1] is 8.19 µM; in test [2] it was greater than 57.3 µM; in [3], 13.6 µM; in test [4], 5.96 µM; in test [5], 33.3 µM; in test [6], 9.48 µM. Besides, the TGI was greater than 100 µM in [7], 17.9 µM in [8], 18.7 µM in test [9] and 2.12 µM in [10].

Take `CCOC(=O)c1cnc2oc3ccc(O)cc3c2c1-c1ccccc1`: the TGI in [1] was greater than 100 µM; in test [2], greater than 100 µM; in test [3], greater than 100 µM; in [4] it was 46.1 µM; in [5], greater than 100 µM; in test [6], greater than 100 µM. The TGI in test [7], in test [8], in [9] and in test [10] was greater than 100 µM throughout.

Consider `O=c1ccn(CC2(CO)CC(Cc3ccccc3)C2)c(=O)[nH]1` (stereo not given), for which the TGI in test [1], in test [2], in test [3], in test [4], in test [5] and in [6] was greater than 100 µM throughout. In addition, the TGI in test [7], in test [8], in test [9] and in test [10] was greater than 100 µM in each case.

On to `COC(=O)C(CSSC[C@H](N/C(C)=C/C(C)=O)C(=O)OC)N/C(C)=C/C(C)=O` (stereo not given in full), for which the TGI in test [1] is 52.9 µM; in [2] it was greater than 100 µM; in [3] it was greater than 100 µM; in [4], greater than 100 µM; in [5], 39.2 µM; in test [6], 52.7 µM. The TGI is 71.5 µM in [7], greater than 100 µM in test [8], 39.7 µM in test [9] and 88.6 µM in test [10].

In the case of `COc1c(O)cc(O)c2c(=O)cc(-c3ccccc3)oc12`, the TGI in test [1] is greater than 100 µM; in [2], greater than 100 µM; in test [3], greater than 100 µM; in [4], greater than 100 µM; in test [5] it was greater than 100 µM; in [6], 42.7 µM. For the same compound, the TGI is greater than 100 µM in [7], greater than 100 µM in [8], 68.8 µM in test [9] and greater than 100 µM in [10].

Turning to `Cc1c(NC(=O)CSC(=S)N2CCN(Cc3ccccc3)CC2)c(=O)n(-c2ccccc2)n1C`, the TGI in [1], in [2], in test [3], in test [4], in test [5] and in test [6] was greater than 100 µM in each case. Further, the TGI in [7], in test [8], in test [9] and in test [10] was greater than 100 µM throughout.

With `O=C1/C(=N\S(=O)(=O)c2ccccc2)C([n+]2ccc(Cc3ccccc3)cc2)=C([O-])c2ccccc21`, the TGI was 6.09 µM in [1]; 3.73 µM in test [2]; 2.22 µM in test [3]; 18.5 µM in [4]; 3.49 µM in test [5]; 6.59 µM in [6]. Besides, the TGI in test [7] is greater than 100 µM; in test [8], 2.14 µM; in [9], 1.83 µM; in test [10], 2.12 µM.

Take `O=C(O)c1nc(-c2ccccc2)[nH]c1C(=O)O`: the TGI in [1] is greater than 61.2 µM; in test [2] it was 33.1 µM; in test [3], 29.2 µM; in test [4] it was 32.4 µM; in test [5], 31.7 µM; in test [6] it was 26.5 µM. The TGI in test [7] is 3.04 µM; in test [8], 30.2 µM; in test [9], 9.47 µM; in test [10], 15.7 µM.

As to `CN1CCN(CCCBr)CC1`, the TGI in [1], in test [2], in [3], in [4], in test [5] and in test [6] was greater than 100 µM throughout. The TGI in test [7], in [8], in test [9] and in [10] was greater than 100 µM throughout.

As for `CC1(C)[C@H]2CC[C@]1(C)[C@H](OC(=O)NNC(=O)O[C@@H]1C[C@@H]3CC[C@@]1(C)C3(C)C)C2`, the TGI in test [1] was found to be 36.6 µM; in test [2] it was 34.1 µM; in test [3] it was 28.6 µM; in test [4] it was 28.6 µM; in test [5] it was 34.1 µM; in test [6] it was 24.7 µM. Besides, the TGI is 76.6 µM in [7], greater than 100 µM in test [8], greater than 100 µM in test [9] and 26.4 µM in test [10].

For `CC1(O)CC(=O)c2c(cc3ccc(-c4c5c(c(O)c6c(O)cccc46)C(=O)CC(C)(O)C5)c(O)c3c2O)C1` (stereo not given), the TGI in test [1] is 4.4 µM; in test [2] it was 2.16 µM; in [3] it was 5.64 µM; in [4], greater than 100 µM; in test [5], 8.66 µM; in [6] it was 1.11 µM. The TGI in [7] came out at 10.5 µM; in test [8], 7.01 µM; in test [9], 5.41 µM; in test [10] it was 1.7 µM.
